According to patent publication US9101616B2, “Aryl substituted carboxamide derivatives as calcium or sodium channel blockers” (RaQualia Pharma Inc., priority 2009, dated 2015):

Molecular target: T1, human T-type channel alpha-1H (CaV 3.2) (Homo sapiens, UniProt O95180)
T1 construct: expressed in transfected cells; host or cells: HEK 293
Test: Ca2+ Influx Assay (cell-based fluorescent, FDSS)
Conditions: HEK 293 cells expressing human CaV 3.2
Method: Inhibition of T-type calcium channel activity was determined by cell-based flu-orescent Ca^2+ influx assay, in which potassium ionophore was added to decrease resting membrane potential and extra-cellular high-K^+ stimulation was used to modulate the membrane potential of the cell. The changes in fluorescent signal were monitored by the cell imaging technology by Hamamatsu Photonics's Functional Drug Screening System (FDSS).
HEK 293 cells expressing the human T-type channel alpha-1H (CaV 3.2) were maintained in DMEM supplemented with 10% heat-inactivated FBS, 100 units/ml Penicillin, 100 microg/ml Streptomycin, 150 microg/ml Zeocin, 300 microg/ml Geneticin. The cells were grown in a 5% CO2 humidified incubator at 37° C.
• 1. Cells were harvested and seeded in a poly-D-lysine coated black-sided clear bottom 384-well plate at density of 10,000 cells/well at 24 hours prior to assay. • 2. Incubate at 37° C. in 5% CO2. Day Two: • 1. Wash each well with assay buffer (see below) and leave 20 RI using plate washer, ELx-405 Select CW (BIO-TEK). • 2. Add 20 μL of assay buffer containing 6 μM Fluo-4-AM (Molecular Probes) and 0.005% Pluronic F-127 to each well. • 3. Incubate the plate at 37° C. for 1 hour. • 4. Wash each well assay buffer (see below) and leave 20 μl using plate washer, ELx-405 Select CW (BIO-TEK). • 5. Add 10 μl of compound solution into each well by FDSS6000 and leave the plate for 4.5 min, and then add 10 μl of potassium ionophore solution. • 6. Add 20 μl of high-K^+ depolarizing solution (see below) and monitor the change of fluorescent signal.
The IC50 values for compounds of the present invention were determined from 7-point dose-response studies. Curves were generated using the average of duplicate wells for each data point. Finally, the IC50 values are calculated with the best-fit dose curve determined by XLfit.

T1 sequence (O95180 whole entry): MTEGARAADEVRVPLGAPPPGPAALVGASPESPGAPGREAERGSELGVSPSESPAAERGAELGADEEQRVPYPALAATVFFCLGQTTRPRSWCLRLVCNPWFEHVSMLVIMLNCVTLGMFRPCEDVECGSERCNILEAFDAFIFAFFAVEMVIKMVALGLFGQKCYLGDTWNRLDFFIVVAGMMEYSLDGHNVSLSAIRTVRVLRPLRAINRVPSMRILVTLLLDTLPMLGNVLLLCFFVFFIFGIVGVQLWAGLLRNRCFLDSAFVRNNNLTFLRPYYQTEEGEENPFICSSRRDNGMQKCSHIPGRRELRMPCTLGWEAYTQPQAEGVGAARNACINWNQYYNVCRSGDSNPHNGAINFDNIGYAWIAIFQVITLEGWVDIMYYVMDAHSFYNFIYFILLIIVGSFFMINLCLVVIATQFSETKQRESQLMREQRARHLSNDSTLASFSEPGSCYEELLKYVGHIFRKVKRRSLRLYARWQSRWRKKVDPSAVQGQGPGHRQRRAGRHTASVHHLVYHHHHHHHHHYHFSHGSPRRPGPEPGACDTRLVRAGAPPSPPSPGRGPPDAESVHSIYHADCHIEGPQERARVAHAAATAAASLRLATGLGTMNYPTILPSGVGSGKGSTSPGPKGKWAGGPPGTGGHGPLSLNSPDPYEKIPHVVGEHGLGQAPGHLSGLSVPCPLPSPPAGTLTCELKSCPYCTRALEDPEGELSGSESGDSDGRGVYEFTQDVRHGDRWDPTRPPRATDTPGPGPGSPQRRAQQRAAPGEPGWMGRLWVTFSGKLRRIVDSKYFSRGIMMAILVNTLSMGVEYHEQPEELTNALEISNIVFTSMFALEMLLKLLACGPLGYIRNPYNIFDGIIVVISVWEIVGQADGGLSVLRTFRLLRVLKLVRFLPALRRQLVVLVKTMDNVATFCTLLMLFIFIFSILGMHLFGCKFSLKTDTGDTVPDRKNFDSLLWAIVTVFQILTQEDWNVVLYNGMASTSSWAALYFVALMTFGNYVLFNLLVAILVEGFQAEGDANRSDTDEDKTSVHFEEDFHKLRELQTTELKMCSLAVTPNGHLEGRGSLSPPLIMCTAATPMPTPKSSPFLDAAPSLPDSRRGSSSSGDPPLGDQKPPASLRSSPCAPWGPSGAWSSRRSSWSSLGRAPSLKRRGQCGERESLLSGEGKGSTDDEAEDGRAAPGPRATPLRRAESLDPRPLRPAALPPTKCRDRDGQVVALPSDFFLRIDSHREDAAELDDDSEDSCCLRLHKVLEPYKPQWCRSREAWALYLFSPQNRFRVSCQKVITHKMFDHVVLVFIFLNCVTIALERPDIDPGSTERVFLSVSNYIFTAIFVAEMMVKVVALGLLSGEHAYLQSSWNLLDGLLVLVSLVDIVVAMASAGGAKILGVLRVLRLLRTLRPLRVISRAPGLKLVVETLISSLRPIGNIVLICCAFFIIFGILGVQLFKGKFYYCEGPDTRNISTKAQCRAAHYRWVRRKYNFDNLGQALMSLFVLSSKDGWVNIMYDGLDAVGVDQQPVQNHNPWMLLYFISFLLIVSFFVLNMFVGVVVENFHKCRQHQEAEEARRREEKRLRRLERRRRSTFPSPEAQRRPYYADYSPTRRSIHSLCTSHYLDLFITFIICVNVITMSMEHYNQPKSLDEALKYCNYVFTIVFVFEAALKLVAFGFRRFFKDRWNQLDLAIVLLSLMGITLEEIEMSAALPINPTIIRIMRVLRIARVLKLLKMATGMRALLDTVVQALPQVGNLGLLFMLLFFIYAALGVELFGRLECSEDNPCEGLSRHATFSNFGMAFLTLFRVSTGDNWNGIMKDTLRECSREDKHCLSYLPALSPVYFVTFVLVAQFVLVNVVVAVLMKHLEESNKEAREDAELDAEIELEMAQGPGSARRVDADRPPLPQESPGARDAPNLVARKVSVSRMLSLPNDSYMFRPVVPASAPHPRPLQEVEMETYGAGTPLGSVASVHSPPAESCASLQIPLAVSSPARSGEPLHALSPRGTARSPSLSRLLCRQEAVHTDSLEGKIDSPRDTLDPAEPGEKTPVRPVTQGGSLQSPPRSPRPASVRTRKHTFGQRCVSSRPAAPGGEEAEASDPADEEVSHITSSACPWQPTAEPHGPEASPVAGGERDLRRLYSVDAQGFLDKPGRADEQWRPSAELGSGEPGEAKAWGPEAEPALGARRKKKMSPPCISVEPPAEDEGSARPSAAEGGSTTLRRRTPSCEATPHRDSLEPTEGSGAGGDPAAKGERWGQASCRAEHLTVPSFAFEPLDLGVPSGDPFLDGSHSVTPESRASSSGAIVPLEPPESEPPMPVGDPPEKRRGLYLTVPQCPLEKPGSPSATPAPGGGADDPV

Row | Compound | IC50 [nM]
1 | C[C@@H](NC(=O)C1CC1c1cnc2ccccc2c1)c1ccc(OCC(F)(F)F)nc1 (stereo in doubt) [Example 211, trans-2-(quinolin-3-yl)-N-((R)-1-(6-(2,2,2-trifluoroethoxy)pyridin-3-yl)ethyl)cyclopropanecarboxamide] | ≤ 300
2 | COc1cccc([C@H]2C[C@@H]2C(=O)N[C@H](C)c2ccc(OCC(F)(F)F)cn2)c1 (relative stereo) [Example 258, (1S*,2S*)-2-(3-methoxyphenyl)-N-((R)-1-(5-(2,2,2-trifluoroethoxy)pyridin-2-yl)ethyl)cyclopropanecarboxamide] | ≤ 300
3 | C[C@@H](NC(=O)[C@@H]1C[C@H]1c1cccc2[nH]ccc12)c1ccc(OCC(F)(F)F)cn1 (relative stereo) [Example 277, (1R*,2R*)-2-(1H-indol-4-yl)-N-((R)-1-(5-(2,2,2-trifluoroethoxy)pyridin-2-yl)ethyl)cyclopropanecarboxamide] | ≤ 300
4 | C[C@@H](NC(=O)[C@@H]1C[C@H]1c1cccc2cc[nH]c12)c1cnc(OCC(F)(F)F)cn1 (relative stereo) [Example 323, (1R*,2R*)-2-(1H-indol-7-yl)-N-((R)-1-(5-(2,2,2-trifluoroethoxy)pyrazin-2-yl)ethyl)cyclopropanecarboxamide] | ≤ 300
5 | C[C@@H](NC(=O)[C@H]1C[C@@H]1c1ccc(F)cc1Cl)c1ccc(OCC2CC2)cn1 (relative stereo) [Example 261, (1S*,2S*)-2-(2-chloro-4-fluorophenyl)-N-((R)-1-(5-(cyclopropylmethoxy)pyridin-2-yl)ethyl)cyclopropanecarboxamide] | ≤ 300
6 | C[C@@H](NC(=O)C1CC1c1cccc2cc[nH]c12)c1ccc(OCC(F)(F)F)nc1 (stereo in doubt) [Example 212, trans-2-(1H-indol-7-yl)-N-((R)-1-(6-(2,2,2-trifluoroethoxy)pyridin-3-yl)ethyl)cyclopropanecarboxamide] | ≤ 300
7 | C[C@@H](NC(=O)[C@@H]1C[C@H]1c1c(F)cc(F)cc1F)c1ccc(OCC2CC2)cn1 (relative stereo) [Example 266] | ≤ 300
8 | C[C@@H](NC(=O)[C@H]1C[C@@H]1c1ccc(OCc2ccccc2)cc1)c1ccc(OCC(F)(F)F)cn1 (relative stereo) [Example 237, (1S*,2S*)-2-(4-(benzyloxy)phenyl)-N-((R)-1-(5-(2,2,2-trifluoroethoxy)pyridin-2-yl)ethyl)cyclopropanecarboxamide] | ≤ 300
9 | C[C@@H](NC(=O)C1CC1c1cc2cc(F)ccc2[nH]1)c1cnc(OCC(F)(F)F)cn1 (stereo in doubt) [Example 171, trans-2-(5-fluoro-1H-indol-2-yl)-N-((R)-1-(5-(2,2,2-trifluoroethoxy)pyrazin-2-yl)ethyl)cyclopropanecarboxamide] | ≤ 300
10 | C[C@@H](NC(=O)C1CC1c1ccc2cnn(C)c2c1)c1ccc(OCC(F)(F)F)nc1 (stereo partly drawn) [Example 228, trans-2-(1-methyl-1H-indazol-6-yl)-N-((R)-(6-(2,2,2-trifluoroethoxy)pyridin-3-yl)ethyl)cyclopropanecarboxamide] | ≤ 300
11 | COc1ccc([C@H]2C[C@@H]2C(=O)N[C@H](C)c2ccc(OCC3CC3)cn2)c(F)c1 (relative stereo) [Example 263, (1S*,2S*)-N-((R)-1-(5-(cyclopropylmethoxy)pyridin-2-yl)ethyl)-2-(2-fluoro-4-methoxy-phenyl)cyclopropanecarboxamide] | ≤ 300
12 | C[C@@H](NC(=O)[C@H]1C[C@@H]1c1ccc(OCc2ccccn2)cc1)c1ccc(OCC(F)(F)F)cn1 (relative stereo) [Example 305, (1S*,2S*)-2-(4-(pyridin-2-ylmethoxy)phenyl)-N-((R)-1-(5-(2,2,2-trifluoroethoxy)pyridin-2-yl)ethyl)cyclopropanecarboxamide] | ≤ 300
13 | C[C@@H](NC(=O)[C@H]1C[C@@H]1c1cc2ccccc2[nH]1)c1cnc(OCC(F)(F)F)cn1 (relative stereo) [Example 225, (1S*,2S*)-2-(1H-indol-2-yl)-N-((R)-1-(5-(2,2,2-trifluoroethoxy)pyrazin-2-yl)ethyl)cyclopropanecarboxamide] | ≤ 300
14 | C[C@@H](NC(=O)[C@H]1C[C@@H]1COc1ccccc1)c1ccc(OCC(F)(F)F)nc1 (relative stereo) [Example 320, (1S*,2S*)-2-(phenoxymethyl)-N-((R)-1-(6-(2,2,2-trifluoroethoxy)pyridin-3-yl)ethyl)cyclopropanecarboxamide] | ≤ 300
15 | C[C@@H](NC(=O)[C@H]1C[C@@H]1COc1ccc(F)cc1)c1ccc(OCC(F)(F)F)cn1 (relative stereo) [Example 296, (1S*,2S*)-2-((4-fluorophenoxy)methyl)-N-((R)-1-(5-(2,2,2-trifluoroethoxy)pyridin-2-yl)ethyl)cyclopropanecarboxamide] | ≤ 300
16 | C[C@@H](NC(=O)[C@@H]1C[C@H]1c1ccc2ccccc2n1)c1cnc(OCC(F)(F)F)cn1 (relative stereo) [Example 222, (1R*,2R*)-2-(quinolin-2-yl)-N-((R)-1-(5-(2,2,2-trifluoroethoxy)pyrazin-2-yl)ethyl)cyclopropanecarboxamide] | ≤ 300
17 | C[C@@H](NC(=O)C1CC1c1nc2ccccc2n1C)c1ccc(OCC(F)(F)F)nc1 (stereo in doubt) [Example 245, trans-2-(1-methyl-1H-benzo[d]imidazol-2-yl)-N-((R)-1-(6-(2,2,2-trifluoroethoxy)pyridin-3-yl)ethyl)cyclopropanecarboxamide] | ≤ 300
18 | C[C@@H](NC(=O)C1CC1c1ccc2ccn(CC3(C)COC3)c2c1)c1cnc(OCC(F)(F)F)cn1 (stereo in doubt) [Example 190, trans-2-(1-((3-methyloxetan-3-yl)methyl)-1H-indol-6-yl)-N-((R)-1-(5-(2,2,2-trifluoro-ethoxy)pyrazin-2-yl)ethyl)cyclopropanecarboxamide] | ≤ 300
19 | C[C@@H](NC(=O)C1CC1c1ccc2ccn(C)c2c1)c1ccc(OCC(F)(F)F)nc1 (stereo in doubt) [Example 208, trans-2-(1-methyl-1H-indol-6-yl)-N-((R)-1-(6-(2,2,2-trifluoroethoxy)pyridin-3-yl)ethyl)cyclopropanecarboxamide] | ≤ 300
20 | C[C@@H](NC(=O)[C@H]1C[C@@H]1c1ccccc1)c1ccc(OCC(F)(F)F)cn1 (relative stereo) [Example 280, (1S*,2S*)-2-phenyl-N-((R)-1-(5-(2,2,2-trifluoroethoxy)pyridin-2-yl)ethyl)cyclopropanecarboxamide] | ≤ 300
21 | C[C@@H](NC(=O)[C@H]1C[C@@H]1c1c(F)cc(F)cc1F)c1cnc(OCC(F)(F)F)cn1 (relative stereo) [Example 271, (1S*,2S*)-N-((R)-1-(5-(2,2,2-trifluoroethoxy)pyrazin-2-yl)ethyl)-2-(2,4,6-trifluorophenyl) cyclopropanecarboxamide] | ≤ 300
22 | C[C@@H](NC(=O)[C@H]1C[C@@H]1c1ccc2cnn(C)c2c1)c1ccc(OCC(F)(F)F)cn1 (relative stereo) [Example 227, (1S*,2S*)-2-(1-methyl-1H-indazol-6-yl)-N-((R)-1-(5-(2,2,2-trifluoroethoxy)pyridin-2-yl)ethyl)cyclopropanecarboxamide] | ≤ 300
23 | C[C@@H](NC(=O)COc1ccc(C(F)(F)F)cc1)c1ccc(OCC(F)(F)F)cn1 [Example 3, (R)-N-(1-(5-(2,2,2-trifluoroethoxy)pyridin-2-yl)ethyl)-2-(4-(trifluoromethyl)phenoxy)acetamide] | ≤ 300
24 | C[C@@H](NC(=O)C1CC1c1c[nH]c2cc(F)ccc12)c1ccc(OCC(F)(F)F)cn1 (stereo in doubt) [Example 168, trans-2-(6-fluoro-1H-indol-3-yl)-N-((R)-1-(5-(2,2,2-trifluoroethoxy)pyridin-2-yl)ethyl)cyclopropanecarboxamide] | ≤ 300
25 | COc1ccc(C2CC2C(=O)N[C@H](C)c2ccc(OCC(F)(F)F)cn2)cc1C (stereo in doubt) [Example 202, trans-2-(4-methoxy-3-methylphenyl)-N-((R)-1-(5-(2,2,2-trifluoroethoxy)pyridin-2-yl)ethyl)cyclopropanecarboxamide] | ≤ 300
26 | C[C@@H](NC(=O)C1CC1c1ccc2ncccc2c1)c1ccc(OCC(F)(F)F)nc1 (stereo in doubt) [Example 207, trans-2-(quinolin-6-yl)-N-((R)-1-(6-(2,2,2-trifluoroethoxy)pyridin-3-yl)ethyl)cyclopropanecarboxamide] | ≤ 300
27 | C[C@@H](NC(=O)[C@H]1C[C@@H]1c1ccccc1)c1ccc(OCC(F)(F)F)nc1 (relative stereo) [Example 284, (1S*,2S*)-2-phenyl-N-((R)-1-(6-(2,2,2-trifluoroethoxy)pyridin-3-yl)ethyl)cyclopropanecarboxamide] | ≤ 300
